In one data set the target is T1, MT2 (Homo sapiens, UniProt P49286).
T1 sequence (P49286 1-362): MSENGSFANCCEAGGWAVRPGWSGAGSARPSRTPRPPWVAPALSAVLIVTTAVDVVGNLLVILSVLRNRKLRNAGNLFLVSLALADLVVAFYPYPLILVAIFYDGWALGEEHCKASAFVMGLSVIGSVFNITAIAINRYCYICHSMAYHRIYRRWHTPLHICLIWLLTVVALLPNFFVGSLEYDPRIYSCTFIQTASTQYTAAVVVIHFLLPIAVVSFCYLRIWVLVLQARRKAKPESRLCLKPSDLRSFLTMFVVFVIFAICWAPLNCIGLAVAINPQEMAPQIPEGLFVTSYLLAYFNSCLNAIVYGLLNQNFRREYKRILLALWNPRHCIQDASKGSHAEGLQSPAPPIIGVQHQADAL
The experiment in a line: cAMP assay (GloSensor), isoproterenol-stimulated cAMP in HEK cells. The settings on record: for hMT2 pEC50: FIG. 3D-3F, transiently expressed receptor, isoproterenol-stimulated cAMP production; for hMT2 Schild slope / hMT2 pKB: Schild analysis, competitive antagonism of melatonin. The arrangement: expressed in transfected cells; host or cells: HEK-T (HEK-293 T) cells, co-transfected with GloSensor DNA. Format: cell-based. On the procedure:
MT1 and MT2 receptors were tested using Promega's spilt luciferase based GboSensor cAMP biosensor technology. HEK-T cells were plated in 15 cm cell culture dish (at a density of 18 million cells) containing DMEM composed of 10% dialyzed FBS, 2 mM L-glutamine, 100 units/ml penicillin G, 100 μg/ml streptomycin for 4-6 hour. Then, cells were co-transfected with 8 μg of construct which encodes either MT1 or MT2 (de-Tangonized constructs) and […] of Glosensor DNA. […] The next day, cell medium were discarded and loaded with 20 μl of assay buffer (1×HBSS, 20 mM HEPES, pH 7.4, 0.1% BSA). To measure agonist activity of MT1 or MT2 receptor, 10 μl of test compound solution at 3× final concentration was added for 15 minutes followed by addition of 10 μl of luciferin/isoproterenol mixture (at a final concentration of 4 mM and 200 nM respectively) for another 15 mins for luminescence quantification. Then, plates were counted using SpectraMax luminescence reader (Molecular Device). Data were analyzed using GraphPad Prism 6.0.
(Changes in cAMP serve as a functional read-out for many G protein-coupled receptors.)

Data set [1] is described as follows: Mouse pharmacokinetic (PK) studies. The format is in vivo. The settings on record: for Brain/Plasma Ratio: 30′; for T1/2: plasma.
The test system of another data set is C3H/HeN mice. The experiment in a line: Phase shift of circadian running wheel activity onset in constant dark. Format: in vivo, mouse. The settings on record: for advance of the onset of activity: 0.9 μg/mouse (~30 μg/Kg) s.c., CT10 (dusk), 3 days; for advance of the onset of running wheel activity: 30 μg/mouse (1 mg/Kg) s.c., CT10, WT; for EC50 of in vivo activity (circadian phase shift): mouse. From the text:
Male and female C3H/HeN (C3H) wild-type (WT), MT1 knockout (MT1KO), and MT2 knockout (MT2KO) mice (average 6.28 months) used in this study were raised in our breeding colony at University at Buffalo. […] Genotype was confirmed using tail samples at the end of each experiment and was verified periodically during the tenure of the colony. The strains of mice in our breeding colony were re-derived periodically by backcrossing with WT mice to reduce genetic drift.
Mice were group housed (3-5 per cage) with corncob bedding in polycarbonate translucent cages (30×19 cm) and maintained in a 14/10 light-dark (LD) cycle (Zeitgeber time 0 or ZT0 corresponds to Lights ON and ZT 14 to Lights OFF) in temperature and humidity controlled rooms with ad libitum access to food and water in the Laboratory Animal Facility at the University at Buffalo. Light levels were 200-300 lux at the level of the cage. Treatments and animal care performed in the dark were under a dim red safelight (15 watts, Kodak 1A filter) with illuminance of less than 3-5 lux (Benloucif, S. & Dubocovich, M. L. J Biol Rhythms 11, 113-125, (1996). All experimental procedures using mice were conducted in accordance with guidelines set forth by the National Institutes of Health and approved by the University at Buffalo Institutional Animal Care and Use Committee.
Circadian rhythm phase was determined for each mouse using the onset of running wheel activity defined as CT12 (Circadian Time 12). Running wheel activity was measured continuously via magnetic microswitches detecting wheel revolutions with a computer equipped with Clocklab data collection Software™ (Actimetrics: Wilmette, Ill.). All actigraphy data was visualized and analyzed using ClockLab™ and MATLAB™ software. All mice were individually housed in cages (33×15 cm) equipped with running wheels in light-tight ventilated cabinets with controlled temperature and LD cycles (Phenome Technologies: Skokie, Ill.). Male and female mice were housed in separate cabinets for all experiments.
Following a period of 14 days in a LD cycle mice were placed in constant dark (DD) beginning at ZT12 (dark onset). Mice were keptin DD (2-3 weeks) untilastable free-running phase of running wheel activity rhythm onset was established. Circadian times of treatment were predicated from best fit lines of running wheel activity onsets for of running either pre (7-14 days) and post (7-14 days) treatment. Treatment times were at CT10 (CT9-11) and CT2 (CT1-3) within a 3 hour window. […] Vehicle or drug treatments were repeated for 3 consecutive days at the selected circadian time following the three-pulse treatment protocol described (Benloucif, supra). Phase shifts were quantified using the best-fit lines for onsets of activity during pre and post treatment periods. Differences are characterized as phase delays (pre-treatment ahead of post treatment best fit line onset) or phase advances (post treatment ahead of pre treatment best fit line onset) of running wheel activity onset rhythms.
All statistical analyses as described in further detail for each experiment were conducted using GraphPad Prism 8™ (La Jolla, Calif.). All data sets were visualized for normality using QQ plots of predicted vs. actual residuals. Actigraphy data was generated for visualization blind to treatment prior to the quantification and statistical analysis stages. […] Data in FIGS. 4F & 4G were compared via a two-way ANOVA (3×2: genotype x treatment) with Tukey's post hoc analyses (P<0.05). Comparisons for FIG. 4L, FIGS. 11H-11J were made by mixed effect two-way repeated measures ANOVA (treatment×time) with Sidak's post hoc test (P<0.05). Number of days to re-entrainment was compared via one-way ANOVA or two-way ANOVA for FIG. 4M & FIG. 4N with a Dunnet's & Tukey's post hoc test (P<0.05) respectively. P values and values for statistical analyses are included in figure legends. […]

Read-outs that look alike come from different tables or passages of the source.

As a reminder, the Emax is the maximal effect, on the per cent scale that the assay sets. One may read the AUC as concentration integrated over time. The Cmax is the peak of the concentration-time curve. What is called Vss is the apparent volume that relates the amount in the body to the concentration in plasma or blood. Higher therefore signals wide distribution into tissue.

On to `COc1ccc(Br)c(CNc2cccnc2)c1` [ZINC128734226], for which the “hMT2 pEC50” value on MT2 is recorded as 8.15±0.09. Further, the Emax on MT2 (HEK293, FIG. 3F, normalized to maximal melatonin effect, read-out: hMT2 Emax) was found to be 89 ± 3%. For the same compound, the Emax at MT2 (HEK293, Table 2, agonist, normalized to melatonin response, read-out: MT2 % Emax (converted)) was 89%. Further, at MT2 (HEK293, Table 4, agonist, read-out: Emax % MT2), the Emax was 80%. In addition, the “pIC50 MT2” value on MT2 (Table 4, agonist) is 8.2. Besides, at MT2 (agonist, isoproterenol-stimulated cAMP inhibition, read-out: EC50 at MT2), the EC50 is 0.0063 µM. In data set [1], this compound yielded an AUC of 0.2821 µg·h/mL, a CL of 7.074 L/h/kg, a Cmax of 1.9228 µg/mL and a Vss of 1.11 L/kg. For the same compound, in data set [1], the “Brain/Plasma Ratio” value is recorded as 1.58 (30′) and the T1/2 was determined as 17.4 min. Besides, the “effect on circadian phase” value in the data set with C3H/HeN mice (0.9 or 30 μg/Kg doses, CT10, in words) is “did not significantly affect circadian phase”.
Regarding `Clc1ccc(CNc2cccc(-c3nnc[nH]3)c2)c(Br)c1` [ZINC555417447], on MT2, the “hMT2 pEC50” value is 5.66±0.10, the “hMT2 Schild slope” value was 1.3±0.4 and the “hMT2 pKB” value worked out at 6.2±0.1. Moreover, the Emax on MT2 (HEK293, FIG. 3D-3E, normalized to isoproterenol-stimulated basal activity, read-out: hMT2 Emax) is -84 ± 9%. The Emax on MT2 (HEK293, Table 2, cell marked Inverse (inverse agonist), read-out: MT2 % Emax (converted)) is 84%. Also, the EC50 at MT2 (Table 4, IA (inverse agonist), read-out: pEC50 MT2 (IA) (converted)) was 1 µM. In data set [1], this compound yielded an AUC of 0.4945 µg·h/mL, a CL of 4.027 L/h/kg, a Cmax of 1.9486 µg/mL and a volume of distribution (Vss) of 1.11 L/kg. Further, in data set [1], the “Brain/Plasma Ratio” value was 3.03 (30′) and the T1/2 was found to be 16.2 min. For the same compound, the “advance of the onset of activity” value with C3H/HeN mice (WT) was “approximately 1 hour”. Besides, the “advance of the onset of running wheel activity” value in the data set on C3H/HeN mice (in words) is “advanced the onset of running wheel activity with an amplitude equivalent to, or even larger than that of melatonin”. Moreover, in the data set on C3H/HeN mice (30 μg/mouse s.c., CT2 (dawn), WT, MT1KO, MT2KO, in words), the “phase shift of RW activity onset at CT2” value is on record as “did not phase shift RW activity onset”. In the data set on C3H/HeN mice (30 μg/mouse s.c., CT10, MT1KO, in words), the “phase advance activity in MT1KO mice” value was “ablation of the activity”. In the data set with C3H/HeN mice (30 μg/mouse s.c., CT10, MT2KO, in words), the “phase advance activity in MT2KO mice” value was “maintenance of its activity”. In the data set on C3H/HeN mice, the “EC50 of in vivo activity (circadian phase shift)” value came to 30 µg/kg.
Take `CC(C)c1ccc(CNc2cccc(-c3ncn[nH]3)c2)cc1` [ZINC157673384]: at MT2 (FIG. 3D-3E, normalized to isoproterenol-stimulated basal activity), the “hMT2 Emax” value was −153±14%. At MT2, the “hMT2 pEC50” value was 6.18±0.04, the “hMT2 Schild slope” value was found to be 1.0±0.1 and the “hMT2 pKB” value was found to be 6.7±0.1. On MT2 (Table 2, cell marked Inverse (inverse agonist)), the “MT2 % Emax” value amounted to 153 ± 14%. Moreover, the “pEC50 MT2 (IA)” value on MT2 (Table 4, IA (inverse agonist)) is on record as 6.5. In data set [1], this compound had an AUC of 0.5638 µg·h/mL, a CL of 3.509 L/h/kg, a Cmax of 1.2996 µg/mL and a Vss of 1.38 L/kg. Further, in data set [1], the “Brain/Plasma Ratio” value is given as 1.43 (30′) and the T1/2 is 19.2 min. Moreover, the “advance of the onset of activity” value with C3H/HeN mice (WT) is “approximately 1 hour”. Also, in the data set with C3H/HeN mice (in words), the “advance of the onset of running wheel activity” value is “advanced the onset of running wheel activity with an amplitude equivalent to, or even larger than that of melatonin”. Besides, in the data set on C3H/HeN mice, the “EC50 of in vivo activity (circadian phase shift)” value is 30 µg/kg.

These data come from patent publication US20230052740A1, “MODULATORS OF CIRCADIAN RHYTHMS AND USES THEREOF” (The Regents of the University of California, priority 2019, published 2023).
